# Read-outs that look alike come from different tables or passages of the source.
# Legend:
# [1] = test system: KB3 (epitheloid lung cancer) cell lines; assay: Cell growth inhibition (cytotoxicity), MTS assay, KB3 cell line; type: cell-based; settings: MTS assay, triplicate, read-out: KB3 IC50
# Description: Cell growth inhibition was determined by the MTS assay; the number of viable cells were proportional to the extent of formazan production in the presence or absence of drugs. […]
# [2] = test system: bloodstream forms of T. congolense STIB910; settings: T. congolense STIB910, identical experimental conditions, Merschjohann et al. (2001); cited from earlier work
# [3] = test system: bloodstream forms of T. brucei 427-221a; settings: identical experimental conditions, Merschjohann et al. (2001); cited from earlier work
# [4] = test system: bloodstream forms of T. brucei and T. congolense; assay: Trypanocidal activity in vitro, Alamar Blue assay; type: cell-based, Trypanosoma brucei and T. congolense; settings: 48 h total incubation; for GI50: 50% growth inhibition, read-out: GI50; for MIC: lowest concentration at which all cells were killed, read-out: MIC
# Source text: Trypanosoma brucei and T. congolense are the causative agents of sleeping sickness in humans and nagana in cattle, respectively. The protozoan parasites live extracellularlyin blood and tissue fluids of mammals and are transmitted by the bite of infected tsetse flies (Glossina spp.). Here the trypanocidal activity against bloodstream forms of T. brucei and T. congolense of bis-8-hydroxy quinoline N-substituted benzylamines derivatives was investigated in vitro, according to methods described in. Steverding et al. (2006) Kinetoplastid Biology and Disease, 5(3): 1-5; Hongmance et al., (2007) Antimicrob. Agents Chemother. 51:1105-1106; and Zhao et al., (2005) Bio-org. Med. Chem.; 13: 3921-3926. Cells were seeded into 96-well tissue culture plates in 200 μl medium containing various concentrations of analogues dissolved in H2O. The controls contained the respective solvent alone. […] After 24 h (trypanosomes) or 43 h (HL-60) incubation, 20 μl of the colorimetric viability indicator Alamar Blue® was added to each well. The cells were incubated for a further 24 h (trypanosomes) or 5 h (HL-60) so that the total incubation time was 48 h. Then, the plates were read on a Dynatech MR5000ELISA reader (Denkendorf, Germany),using a test wavelength of 550 nm and a reference wave length of 630 nm. Each test was set up in duplicate and repeated three times. For comparison, the general cytotoxicity of the compounds was assayed with human myeloid leukaemia HL-60 cells. The anti-trypanosomal activities and the general cytotoxicities of the new analogues were evaluated using the Alamar Blue® assay.
# [5] = test system: caspases 3/7; assay: Caspases 3/7 activation in HL60 cells (DEVD reagent); type: cell-based, human; settings: 48 hours
# Source text: (§1) 7223, using standard commercially available diagnostic kits (Calbiochem, USA). Assay reagents used were DEVD for caspases 3/7, […] for caspases 8, and LEHD for caspases 9. Moreover, colchicine was used as reference compound that induces this activity of caspases.
# [6] = test system: caspases 8; assay: Caspases 8 activation in HL60 cells (IEDT reagent); type: cell-based, human; settings: 48 hours, 1 μM, 0.1 μM and 0.01 μM
# Source text: as §1
# [7] = test system: caspases 9; assay: Caspases 9 activation in HL60 cells (LEHD reagent); type: cell-based, human; settings: 48 hours, 1 μM, 0.1 μM and 0.01 μM
# Source text: as §1
# [8] = test system: U373 (human glioblastoma-astrocytoma); assay: Growth inhibition, MTT colorimetric assay, U373; type: cell-based; settings: glioma, 3 days with drug, means of six values, unit inferred, read-out: IC50 U373
# Description: (§2) Compounds that met the criteria for activity on KB3 cells were further tested for drug growth inhibitory activity in 5 carcinoma, 6 glioma and 3 melanoma cell lines, shown in Table 4. A549 (human lung adenocarcinoma epithelial), BxPC3 (pancreatic cancer), LoVo (colon cancer), MCF-7 (epithelial breast cancer), PC3 (human prostate cancer), Hs683 (human glioma), T98G (glioblastoma), U373 (human glioblastoma-astrocytoma), U138 MG (human glioma), epithelial-like), SKMEL28 (human melanoma), B16-F10 (mouse melanoma) and RhTP (rhabdomyosarcoma) cell lines were cultured in presence of the drugs for 3 days. The cytotoxic activity is expressed as (IC50). Inhibition of cell proliferation measured by the MTT colorimetric assay. The values reported in Table 4 are means of six distinct values. The standard errors are <5% as compared to the mean values.
# [9] = test system: U138 MG (human glioma); assay: Growth inhibition, MTT colorimetric assay, U138; type: cell-based; settings: glioma, 3 days with drug, means of six values, unit inferred, read-out: IC50 U138
# Description: as §2
# [10] = test system: GL19; assay: Growth inhibition, MTT colorimetric assay, GL19; type: cell-based; settings: 3 days with drug, means of six values, unit inferred, read-out: IC50 GL19
# Description: as §2
# [11] = test system: RhTP (rhabdomyosarcoma); assay: Growth inhibition, MTT colorimetric assay, RhTp; type: cell-based; settings: 3 days with drug, means of six values, unit inferred, read-out: IC50 RhTp
# Description: as §2
# [12] = test system: KaKa; assay: Growth inhibition, MTT colorimetric assay, KaKa; type: cell-based; settings: 3 days with drug, means of six values, unit inferred, read-out: IC50 KaKa
# Description: as §2
# [13] = test system: Host; assay: Growth inhibition, MTT colorimetric assay, Host; type: cell-based; settings: 3 days with drug, means of six values, unit inferred, read-out: IC50 Host
# Description: as §2
# [14] = test system: SKMEL28 (human melanoma); assay: Growth inhibition, MTT colorimetric assay, SKMEL-28; type: cell-based; settings: melanoma, 3 days with drug, means of six values, unit inferred, read-out: IC50 SKMEL-28
# Description: as §2
# [15] = test system: B16-F10 (mouse melanoma); assay: Growth inhibition, MTT colorimetric assay, B16F10; type: cell-based; settings: melanoma, 3 days with drug, means of six values, unit inferred, read-out: IC50 B16F10
# Description: as §2
# [16] = test system: HT-22, an immortalized mouse hippocampal cell line; assay: Neuroprotection of HT-22 cells against toxic insults (calcein viability assay); type: cell-based
# Description: It is known (P. Aoun, 2003 Eur. J. Pharm. 472:65-71) that Peroxisome proliferator-activated receptors (PPARs) are involved in regulating many metabolic and inflammatory processes. The present invention explores the role of PPAR ligands in protecting neuronal cultures from toxic insults. For that purpose, the new PPAR agonists described in Example 1 were screened for their potential role as neuroprotective compounds. Experiments were performed using HT-22, an immortalized mouse hippocampal cell line, and SK-N-SH, a human neuroblastoma cell line. HT-22 was selected because it expresses PPARγ receptors. Cell viability against glutamate, hydrogen peroxide (H2O2), and serum deprivation insults was determined using a calcein assay. […] Additionally, compounds were protective even when administered simultaneously with glutamate, or for up to 8 h postglutamate insult.
# HT-22, an immortalized mouse hippocampal cell line, and SK-N-SH, a human neuroblastoma cell line, were used. HT-22 cells were obtained from David Schubert (Salk Institute, San Diego, Calif.). The HT-22 line was originally selected from HT-4 cells based on glutamate sensitivity. SK-N-SH cells were obtained from ATCC (Manassas, Va.). HT-22 and SK-N-SH cells were grown to confluency in Dulbecco's modified essential medium (DMEM) and RPMI-1640 media, respectively, and supplemented with 10% charcoal/dextran-treated fetal bovine serum (FBS) and […] gentamicin at 37° C. under 95% air/5% CO2. HT-22 cells were plated at a density of 50,000 cells/ml (5000 cells/well), and SK-N-SH cells were plated at a density of 120,000-150,000 cells/ml (12,000-15,000 cells/well) in 96-well plates. In most studies, wells were pretreated with PPAR ligands over a wide dose range at various times prior to being subjected to either glutamate, hydrogen peroxide, or serum deprivation insults. In some studies, the insults were applied prior to the addition of the PPAR ligand.
# The following analogues were tested on the HT22 cell line for their neuroprotective effect against glutamate insult and for their anti-inflammatory activity on relevant, models including HT22 cell line.
# [17] = test system: A549 (human lung adenocarcinoma epithelial); assay: Growth inhibition, MTT colorimetric assay, A549; type: cell-based; settings: carcinoma; 3 days with drug; means of six values; unit inferred; read-out: IC50 A549
# Description: as §2, with “A549” for “Compounds that met the criteria for activity on KB3 cells were further tested for drug growth inhibitory activity in 5 carcinoma, 6 glioma and 3 melanoma cell lines, shown in Table 4. A549”, “values.” for “values. The standard errors are <5% as compared to the mean values.”
# [18] = test system: BxPC3 (pancreatic cancer); assay: Growth inhibition, MTT colorimetric assay, BxPC3; type: cell-based, human; settings: carcinoma; 3 days with drug; means of six values; unit inferred; read-out: IC50 BxPC3
# Description: Cells are cultured at 37° C. in Falcon culture dishes, incubated at 5% CO2 in a suitable culture medium available from Invitrogen Corp. Anti-proliferative activity is determined by an MTT assay (bromide of (3-[4,5-dimethylthiazolium-yl]diphenyltetrazolium)). According to one standard protocol, absorbance is measured at 570 nm (see Dumont et al. (2007) Neoplasia 9: 766-776.
# as §2, with “A549” for “Compounds that met the criteria for activity on KB3 cells were further tested for drug growth inhibitory activity in 5 carcinoma, 6 glioma and 3 melanoma cell lines, shown in Table 4. A549”, “values.” for “values. The standard errors are <5% as compared to the mean values.”
# [19] = test system: LoVo (colon cancer); assay: Growth inhibition, MTT colorimetric assay, LoVo; type: cell-based; settings: carcinoma; 3 days with drug; means of six values; unit inferred; read-out: IC50 LoVo
# Description: as §2, with “A549” for “Compounds that met the criteria for activity on KB3 cells were further tested for drug growth inhibitory activity in 5 carcinoma, 6 glioma and 3 melanoma cell lines, shown in Table 4. A549”, “values.” for “values. The standard errors are <5% as compared to the mean values.”
# [20] = test system: MCF-7 (epithelial breast cancer); assay: Growth inhibition, MTT colorimetric assay, MCF7; type: cell-based; settings: carcinoma; 3 days with drug; means of six values; unit inferred; read-out: IC50 MCF7
# Description: as §2, with “A549” for “Compounds that met the criteria for activity on KB3 cells were further tested for drug growth inhibitory activity in 5 carcinoma, 6 glioma and 3 melanoma cell lines, shown in Table 4. A549”, “values.” for “values. The standard errors are <5% as compared to the mean values.”
# [21] = test system: PC3 (human prostate cancer); assay: Growth inhibition, MTT colorimetric assay, PC3; type: cell-based; settings: carcinoma; 3 days with drug; means of six values; unit inferred; read-out: IC50 PC3
# Description: as §2
# [22] = test system: Hs683 (human glioma); assay: Growth inhibition, MTT colorimetric assay, HS683; type: cell-based; settings: glioma; 3 days with drug; means of six values; unit inferred; read-out: IC50 HS683
# Description: as §2, with “A549” for “Compounds that met the criteria for activity on KB3 cells were further tested for drug growth inhibitory activity in 5 carcinoma, 6 glioma and 3 melanoma cell lines, shown in Table 4. A549”, “values.” for “values. The standard errors are <5% as compared to the mean values.”
# [23] = test system: T98G (glioblastoma); assay: cells; type: cell-based; settings: glioma; 3 days with drug; means of six values; unit inferred; read-out: IC50 T98G
# Description: as §2, with “A549” for “Compounds that met the criteria for activity on KB3 cells were further tested for drug growth inhibitory activity in 5 carcinoma, 6 glioma and 3 melanoma cell lines, shown in Table 4. A549”, “values.” for “values. The standard errors are <5% as compared to the mean values.”
compound,measurement,setting,value
"CC(C)(C)OC(=O)N(Cc1cc(C(F)(F)F)cc(C(F)(F)F)c1)Cc1ccc(O)c2ncccc12 [BPM19,190, Tert-butyl-3,5-bis(trifluoromethyl)benzyl((8-hydroxyquinolin-5-yl)methyl)carbamate]",IC50,"[1]; KB3, Table 3B",1000 nM
same,melting point,,149 to 152 °C
"CC(C)(C)OC(=O)N(Cc1cccc(C(F)(F)F)c1)Cc1ccc(O)c2ncccc12 [BPM19,132, Tert-butyl-(8-hydroxyquinolin-5-yl)methyl(3-(trifluoromethyl)benzyl)carbamate]",IC50,"[1]; KB3, Table 3B",1000 nM
same,melting point,,114 to 116 °C
N=C(N)c1ccc(N=NNc2ccc(C(=N)N)cc2)cc1 [diminazene aceturate],IC50,[2],500 nM
Cc1ccc(C(=O)Nc2ccc(S(=O)(=O)O)c3cc(S(=O)(=O)O)cc(S(=O)(=O)O)c23)cc1NC(=O)c1cccc(NC(=O)Nc2cccc(C(=O)Nc3cc(C(=O)Nc4ccc(S(=O)(=O)O)c5cc(S(=O)(=O)O)cc(S(=O)(=O)O)c45)ccc3C)c2)c1 [suramin],IC50,[3],400 nM
"Oc1ccc(CN(Cc2ccc(O)c3ncccc23)Cc2ccc(O)c3ncccc23)c2cccnc12 [BPM19,218, 5,5′,5″-nitrilotris(methylene)triquinolin-8-ol]",IC50,"[1]; KB3, Table 3B",> 10000 nM
same,GI50,[4],450 ± 100 nM
same,MIC,[4],1 µM
same,melting point,,175 to 178 °C
"Cc1ccc(CN(Cc2ccc(O)c3ncccc23)Cc2ccc(O)c3ncccc23)cc1 [BPM19,107, 5,5′-(4-(methyl)benzylazanediyl)bis(methylene)diquinolin-8-ol]",activation of caspases 3/7,[5]; 0.01 μM,"neither BPM18,708 nor BPM19,107 has an effect"
same,activation of caspases 3/7,[5]; 0.1 μM,strong effect
same,activation of caspases 3/7,[5]; 1 μM,strong effect
same,activation of caspases 8,[6],no effect
same,activation of caspases 9,[7],no effect
same,IC50,"[1]; KB3, Table 3A",3 nM
same,IC50,"[8]; Homo sapiens, U373 MG, 72 h",96 nM
same,IC50,"[9]; Homo sapiens, U138-MG, 72 h",81 nM
same,IC50,"[10]; GL19, 72 h",1030 nM
same,IC50,[11]; 72 h,84 nM
same,IC50,[12]; 72 h,710 nM
same,IC50,[13]; 72 h,2460 nM
same,IC50,"[14]; Homo sapiens, SK-MEL-28, 72 h",4.78 µM
same,IC50,"[15]; Mus musculus, B16-F10, 72 h",88 nM
same,neuroprotection from H2O2 insult,[16],dose-dependent neuroprotection
same,neuroprotection from glutamate insult,[16],dose-dependent neuroprotection
same,GI50,[4],310 ± 10 nM
same,MIC,[4],1 µM
"5,5′-(3,5-bis(trifluorométhyl)benzylazanediyl)bis(méthylène)diquinoléin-8-ol [BPM18,201]",IC50,[1]; Table 3A,1000 nM
same,IC50,[17],9 nM
same,IC50,[18],79 nM
same,IC50,[19],10 nM
same,IC50,[20],38 nM
same,IC50,[21],71 nM
same,IC50,[22],181 nM
same,IC50,[23],72 nM
same,IC50,[8],96 nM
same,IC50,[9],46 nM
same,IC50,[10],2140 nM
same,IC50,[11],47 nM
same,IC50,[12],98 nM
same,IC50,[13],146 nM
same,IC50,[14],> 10 µM
same,IC50,[15],76 nM
same,GI50,[4],320 ± 10 nM
same,MIC,[4],1 µM

# — US20110251238A1, “PPAR AGONIST COMPOSITIONS AND METHODS OF USE” (BIOPHARMED, priority 2008, published 2011)
